{"source": "ChEMBL document CHEMBL5096182", "about": "“Aurora kinase inhibitors as potential anticancer agents: Recent advances” (Eur J Med Chem, 2021)", "key": {"HepG2 [1]": {"tested_on": "HepG2", "assay": "Antiproliferative activity against human HepG2 cells", "format": "functional, cell-based"}, "HCT-116 [2]": {"tested_on": "HCT-116", "assay": "Antiproliferative activity against human HCT-116 cells by MTT assay"}, "Aurora kinase A [3]": {"molecular_target": "T1, Aurora kinase A (Homo sapiens, UniProt O14965)", "T1 sequence (O14965 whole entry)": "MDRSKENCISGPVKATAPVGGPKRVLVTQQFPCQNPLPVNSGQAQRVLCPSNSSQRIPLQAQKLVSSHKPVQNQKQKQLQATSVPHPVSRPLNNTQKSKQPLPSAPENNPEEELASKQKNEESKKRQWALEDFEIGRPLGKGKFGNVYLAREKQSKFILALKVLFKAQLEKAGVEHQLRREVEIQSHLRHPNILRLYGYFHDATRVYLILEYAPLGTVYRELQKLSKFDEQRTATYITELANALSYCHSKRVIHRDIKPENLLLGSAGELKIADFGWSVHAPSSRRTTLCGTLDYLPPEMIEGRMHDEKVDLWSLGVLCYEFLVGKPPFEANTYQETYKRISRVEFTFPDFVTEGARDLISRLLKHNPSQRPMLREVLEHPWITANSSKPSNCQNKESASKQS", "assay": "Inhibition of N-terminal GST tagged Aurora A (unknown origin) expressed in recombinant baculovirus-infected Sf9 cells using tetra(LRRWSLG) as substrate preincubated for 15 mins followed by the addition of substrate for 90 mins in the presence of ATP by Kinase-Glo Plus reagent based luminescence assay"}, "MDA-MB-231": {"tested_on": "MDA-MB-231", "assay": "Antiproliferative activity against human MDA-MB-231 cells incubated for 72 hrs by alamar blue cell viability assay", "format": "functional, cell-based", "settings": "MDA-MB-231, 72 h"}, "[4]": {"assay": "Inhibition of Aurora B (unknown origin) using Ulight-PLK (Ser137) as substrate incubated for 60 mins by FRET-based Lance Ultra Kinase assay", "design": "species or system Homo sapiens"}, "SK-OV-3": {"tested_on": "SK-OV-3", "assay": "Antiproliferative activity against human SK-OV-3 cells incubated for 72 hrs by alamar blue cell viability assay", "format": "functional, cell-based", "settings": "SK-OV-3, 72 h"}, "[5]": {"assay": "Oral bioavailability in mouse at 10 mg/kg", "format": "ADME, organism-based", "settings": "in vivo"}, "A549 [6]": {"tested_on": "A549", "assay": "Antiproliferative activity against human A549 cells incubated for 72 hrs by alamar blue cell viability assay", "format": "functional, cell-based", "settings": "A549, 72 h"}, "A-375": {"tested_on": "A-375", "assay": "Antiproliferative activity against human A-375 cells incubated for 72 hrs by alamar blue cell viability assay", "format": "functional, cell-based", "settings": "A-375, 72 h"}, "MCF7": {"tested_on": "MCF7", "assay": "Antiproliferative activity against human MCF7 cells incubated for 72 hrs by alamar blue cell viability assay", "format": "functional, cell-based", "settings": "MCF7, 72 h"}, "A549 [7]": {"tested_on": "A549", "assay": "Antiproliferative activity against human A549 cells incubated for 72 hrs by MTT assay", "format": "functional, cell-based", "settings": "A549, 72 h"}, "Aurora kinase A [8]": {"molecular_target": "T1, Aurora kinase A", "assay": "Inhibition of human Aurora A using LeuArgArgAlaSerLeuGly as substrate"}, "HepG2 [9]": {"tested_on": "HepG2", "assay": "Antiproliferative activity against human HepG2 cells incubated for 48 hrs by SRB assay", "format": "functional, cell-based", "settings": "HepG2, 48 h"}, "A2780": {"tested_on": "A2780", "assay": "Antiproliferative activity against human A2780 cells incubated for 48 hrs by SRB assay", "format": "functional, cell-based", "settings": "A2780, 48 h"}, "HCT-116 [10]": {"tested_on": "HCT-116", "assay": "Antiproliferative activity against human HCT-116 cells incubated for 48 hrs by SRB assay", "format": "functional, cell-based", "settings": "HCT-116, 48 h"}, "Aurora kinase A [11]": {"molecular_target": "T1, Aurora kinase A", "assay": "Inhibition of Aurora A (unknown origin) using recombinant Lats2-N-ter as substrate incubated in the presence of ATP"}, "[12]": {"molecular_target": "T2, Aurora kinase A (Homo sapiens) (UniProt O14965)", "T2 sequence (whole entry)": "T1 sequence (O14965 whole entry)", "assay": "Inhibition of Aurora kinase A (unknown origin) using LeuArgArgAlaSerLeuGly as substrate at 10 uM incubated in presence of ATP relative to control"}, "HCT-116 [13]": {"tested_on": "HCT-116", "assay": "Anticancer activity against human HCT-116 cells assessed as cell growth inhibition measured after 7 days by crystal violet staining based clonogenic long-term survival assay", "format": "functional", "settings": "HCT-116, 168 h, time 7 day"}}, "data": [{"molecule": "Cc1c(-c2cc(-c3cn(-c4ccccc4)nc3-c3nnn(-c4cccc([N+](=O)[O-])c4)c3C)c(C#N)c(N)n2)nnn1-c1ccc(Br)cc1", "values": [{"measurement": "IC50", "setting": "HepG2 [1]", "value": 1.08, "unit": "µg/mL"}]}, {"molecule": "COc1ccc(-c2cc(-c3nnn(-c4ccc(Br)cc4)c3C)nc(N)c2C#N)cc1", "values": [{"measurement": "IC50", "setting": "HepG2 [1]", "value": 2.34, "unit": "µg/mL"}]}, {"molecule": "COc1cc2ncnc(NCCc3ccc(NC(=O)Nc4ccccc4)cc3)c2cc1OC", "values": [{"measurement": "IC50", "setting": "HCT-116 [2]", "value": 0.023, "unit": "µM"}, {"measurement": "IC50", "setting": "Aurora kinase A [3]", "value": 0.025, "unit": "µM"}]}, {"molecule": "Cc1c(-c2cc(-c3cn(-c4ccccc4)nc3-c3nnn(-c4ccc(Br)cc4)c3C)c(C#N)c(N)n2)nnn1-c1ccc(Br)cc1", "values": [{"measurement": "IC50", "setting": "HepG2 [1]", "value": 0.64, "unit": "µg/mL"}]}, {"molecule": "CN1CCN(c2nc(Nc3ccc(S(N)(=O)=O)cc3)ncc2F)Cc2ccc(F)cc21", "values": [{"measurement": "IC50", "setting": "MDA-MB-231", "value": 0.42, "unit": "µM"}, {"measurement": "IC50", "setting": "[4]", "value": 0.008, "unit": "µM"}, {"measurement": "IC50", "setting": "SK-OV-3", "value": 0.69, "unit": "µM"}, {"measurement": "bioavailability", "setting": "[5]", "value": 73, "unit": "%"}, {"measurement": "IC50", "setting": "A549 [6]", "value": 1.53, "unit": "µM"}, {"measurement": "IC50", "setting": "A-375", "value": 3.97, "unit": "µM"}, {"measurement": "IC50", "setting": "MCF7", "value": 0.57, "unit": "µM"}]}, {"molecule": "O=C(N/N=C/c1coc2ccccc2c1=O)c1ccc(F)cc1", "values": [{"measurement": "IC50", "setting": "A549 [7]", "value": 1.14, "unit": "µM"}, {"measurement": "IC50", "setting": "Aurora kinase A [8]", "value": 1.14, "unit": "µM"}]}, {"molecule": "COc1ccccc1C1C(C(=O)Nc2ccc(-c3nc4ccccc4[nH]3)cc2)=C(N)NC2SC=CN21", "note": "(stereo unspecified)", "values": [{"measurement": "IC50", "setting": "HepG2 [9]", "value": 2.11, "unit": "µM"}, {"measurement": "IC50", "setting": "A2780", "value": 3.1, "unit": "µM"}, {"measurement": "IC50", "setting": "HCT-116 [10]", "value": 1.2, "unit": "µM"}]}, {"molecule": "CN1CCN(c2ccc(Nc3ncc(F)c(N4CCN(C)c5cc(F)ccc5C4)n3)cc2)CC1", "values": [{"measurement": "IC50", "setting": "[4]", "value": 0.007, "unit": "µM"}]}, {"molecule": "NC1=C(C(=O)Nc2ccc(-c3nc4ccccc4[nH]3)cc2)C(c2ccc([N+](=O)[O-])cc2)N2C=CSC2N1", "note": "(stereo unspecified)", "values": [{"measurement": "IC50", "setting": "HepG2 [9]", "value": 2.34, "unit": "µM"}, {"measurement": "IC50", "setting": "A2780", "value": 3.5, "unit": "µM"}, {"measurement": "IC50", "setting": "HCT-116 [10]", "value": 1.32, "unit": "µM"}]}, {"molecule": "CC(=O)N1CCN(c2ccc(Nc3ncc(F)c(N4CCN(C)c5cc(F)ccc5C4)n3)cc2)CC1", "values": [{"measurement": "IC50", "setting": "[4]", "value": 0.009, "unit": "µM"}]}, {"molecule": "C=CCn1c(C)nc2ccc(Nc3nc(N4CCN(C)CC4)nc4ccccc34)cc21", "values": [{"measurement": "IC50", "setting": "Aurora kinase A [11]", "value": 0.035, "unit": "µM"}]}, {"molecule": "COc1cccc2c1C(=O)c1c(O)c3c(c(O)c1C2=O)C[C@@](O)(C(=O)CO)C[C@@H]3O[C@H]1C[C@H](N)[C@H](O)[C@H](C)O1", "note": "[DOXORUBICIN]", "values": [{"measurement": "IC50", "setting": "HepG2 [1]", "value": 3.56, "unit": "µg/mL"}]}, {"molecule": "COc1ccc(-c2cc(-c3ccccc3O)nc(N)n2)c(OC)c1", "values": [{"measurement": "inhibition", "setting": "[12]", "value": 95, "unit": "%"}, {"measurement": "GI50", "setting": "HCT-116 [13]", "value": 1.45, "unit": "µM"}]}]}
